Measurements published in US20230293560A1, “METHOD FOR MODULATING THE BLADDER MICROBIOME TO IMPROVE BLADDER HEALTH” (Kimberly-Clark Worldwide, Inc., priority 2020, published 2023).

How the values were obtained:
[1] = tested on: E. faecalis; assay: Plate assay screening of prebiotics; assay type: cell-based, Enterococcus faecalis; set-up: key: ++: if growth and fermentation was equal to or greater than the positive control; +: if growth and fermentation was less than the positive control; +: if weak or no growth or fermentation; +^2: Bacteria demonstrated growth but no fermentation on the prebiotic; details: E. faecalis KC16-7171-3, Bladder; MRS-based agar with glucose substituted by prebiotic
Description: (§1) Most of the prebiotic compounds were initially tested in a high throughput assay screening process, described further in the Test Methods section herein, but three prebiotics (as noted in Table 3) were tested using a plate assay screening process as described in the Test Methods section herein. The prebiotics were tested against the commensal bacterial species of Lactobacillus crispatus, Lactobacillus gasseri, and Lactobacillus jensenii and against the pathogenic bacterial species of Streptococcus anginosus and Enterococcus faecalis as shown in Table 2. The bacterial species were taken from different sources, listed as culture collection, bladder, and vagina. […]
(§2) • 1. […] Bacteria were enumerated on each agar and color changes were recorded. […] Small colonies are counted as S. anginosus and large colonies are counted as L. crispatus. • 10. […]

[2] = tested on: L. crispatus; assay: Plate assay screening of prebiotics; assay type: cell-based, Lactobacillus crispatus; set-up: key: ++: if growth and fermentation was equal to or greater than the positive control; +: if growth and fermentation was less than the positive control; +: if weak or no growth or fermentation; +^2: Bacteria demonstrated growth but no fermentation on the prebiotic; details: MRS-based agar with glucose substituted by prebiotic
Description: as §1, §2

[3] = tested on: L. jensenii; assay: Plate assay screening of prebiotics; assay type: cell-based, Lactobacillus jensenii; set-up: key: ++: if growth and fermentation was equal to or greater than the positive control; +: if growth and fermentation was less than the positive control; +: if weak or no growth or fermentation; +^2: Bacteria demonstrated growth but no fermentation on the prebiotic; details: L. jensenii KC17-4297-18, Bladder; MRS-based agar with glucose substituted by prebiotic
Description: as §1, §2

[4] = tested on: S. anginosus; assay: Plate assay screening of prebiotics; assay type: cell-based, Streptococcus anginosus; set-up: key: ++: if growth and fermentation was equal to or greater than the positive control; +: if growth and fermentation was less than the positive control; +: if weak or no growth or fermentation; +^2: Bacteria demonstrated growth but no fermentation on the prebiotic; details: S. anginosus KC18-1131-3B, Bladder; MRS-based agar with glucose substituted by prebiotic
Description: as §1, §2

[5] = tested on: commensal and pathogenic bacterial species; assay: Prebiotic screening, summary in words across species; assay type: cell-based; details: commensal (L. crispatus, L. gasseri, L. jensenii) and pathogenic (S. anginosus, E. faecalis) species
Outline: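 Prebiotics at 2% w/v stock in API 50 CHL medium with bromocresol purple, inoculated with bacteria and read every 20 min for 24-48 h at OD430/590 (fermentation) and OD660 (growth), scored against a glucose control. Some tested on MRS-based agar with the prebiotic in place of glucose; competition assay with L. crispatus and S. anginosus incubated 48 h anaerobically at 37 °C, then enumerated on MRS and TSA.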

[6] = tested on: E. coli; assay: Additional prebiotic screening against E. coli (plate assay); assay type: cell-based, Escherichia coli
Text: Additional screening of three prebiotic compounds of alpha-methyl-D-glucoside, isomaltulose, and alpha cyclodextrin was completed against pathogenic bacteria species Escherichia coli from both bladder and vaginal sources, as shown in Table 4. The growth of the bacterial species for this additional screening process against E. coli was not compared to growth of a control as in the screening process documented in Table 3, but was documented based on growth or no growth for the number of samples tested.
• 1. An in house bacterial agar was created based on MRS agar (Kaplan and Hutkins, 2000) where the glucose is substituted for the prebiotic to be tested (either dextran MW ˜6,000, alpha-cyclodextrin, glucomannan, or pectin), bromocresol purple was included as a pH indicator. • 2. Bacteria were enumerated on each agar and color changes were recorded. Method for Competition Assay (Modified from “In Vitro Evaluation of Nutrients that Selectively Confer a Competitive Advantage to Lactobacilli” Vongsa et al, Beneficial Microbes 2016) • 1. Create 2% w/v stock of prebiotic or positive control (glucose/dextrose) as described above. • 2. From a freezer stock subculture the bacteria twice into De Man, Rogosa and Sharpe (MRS) broth (BD Difco, Becton Dickinson, Franklin Lakes, NJ), 37° C., stationary, anaerobic, overnight. • 3. From the last subculture, plate onto an MRS agar plate for L. crispatus KC18-1173-1 or blood agar for S. anginosus KC18-1131-3B, grow 37° C., stationary, anaerobic, overnight. • 4. Create a bacterial suspension by using a sterile tipped swab to transfer colonies of bacteria into a PBS suspension blank to a 2 MacFarland for both species. • 5. Enumerate the starting culture. • 6. Add 9.8 mL of prebiotic media into a 15 mL conical tube. • 7. Add 100 μL of the diluted bacteria to the media, incubate at 37° C., anaerobic, 48 hours. • 8. Harvest 100 μL from the tube containing the prebiotic and plate onto MRS agar and tryptic soy agar (TSA). • 9. […] Small colonies are counted as S. anginosus and large colonies are counted as L. crispatus. • 10. […]

[7] = E. coli KC17-3970-4, Vagina, of 1 tested

OC[C@H]1O[C@@H]2O[C@H]3[C@H](O)[C@@H](O)[C@@H](O[C@H]4[C@H](O)[C@@H](O)[C@@H](O[C@H]5[C@H](O)[C@@H](O)[C@@H](O[C@H]6[C@H](O)[C@@H](O)[C@@H](O[C@H]7[C@H](O)[C@@H](O)[C@@H](O[C@H]1[C@H](O)[C@H]2O)O[C@@H]7CO)O[C@@H]6CO)O[C@@H]5CO)O[C@@H]4CO)O[C@@H]3CO [Alpha Cyclodextrin, Alpha-Cyclodextrin]
growth and fermentation vs positive control, Ef-2 (plate assay) [1]: +
growth and fermentation vs positive control, Lc-2 (plate assay) ([2]; L. crispatus KC16-7134-3C, Bladder): +
growth and fermentation vs positive control, Lc-3 (plate assay) ([2]; L. crispatus KC18-1173-1, Bladder): +^2
growth and fermentation vs positive control, Lj-1 (plate assay) [3]: +
growth and fermentation vs positive control, Sa-2 (plate assay) [4]: +
overall outcome of the screening of Table 3, in words [5]: growing at least some of the commensal bacterial species and either having less growth than the positive control or almost no growth of the pathogenic bacterial species
# fermented, Ec-3 (plate assay) [6, 7]: 0
# grew, Ec-3 (plate assay) [6, 7]: 1
growth of E. coli Ec-3, in words ([6]; the one E. coli species tested (Ec-3), vaginal source): did grow
